Data published in US6025365A, “Chelerythrine and radiation combined tumor therapy” (Arch Development Corp., priority 1997, dated 2000).

Assays:
SQ-20B xenografts = experiment: Histology of SQ-20B xenografts; assay type: in vivo, nude mice (human tumor xenograft); settings: combined x-ray and chelerythrine vs IR
Description: Tumors were injected once or twice (day 0 and day 4) with chelerythrine, chelerythrine and 20 Gy (5 Gy/Day) or 20 Gy alone and excised on day 7, fixed in 10% neutral buffered formalin. Tumors were then trimmed and processed in a Tissue Tek II Tissue Processor. Tissues were embedded in paraffin, sectioned and stained with hematoxylin and eosin or with […] of DAPI (4',6-iamidino-2-phenylindole, Sigma D9542, 1 μg/ml in PBT (PBS+1% Triton X-100)), followed by examination for apoptosis and necrosis by light microscopy.
In contrast, 1/16 of the radiation+buffer and 13/43 of the chelerythrine only treated animals regressed to less than 10% of the initial tumor volume. […] Representative sections of non-necrotic areas of tumors were stained with DAPI to detect nuclear changes of apoptosis. Tumor sections were taken at day 7 following treatment with 2 injections of chelerythrine alone, 20 Gy alone, 1 injection of chelerythrine and 20 Gy, or 2 treatments with chelerythrine and 20 Gy. Nuclei from non-necrotic areas of tumors treated with radiation alone appeared rounded and contained a smooth heterachromatin appearance. Few apoptotic nuclei as defined by chromatin margination and nuclear shrinkage could be detected in these areas.

SQ-20B cells = experiment: Viability by propidium iodide exclusion and FACS; settings: 2.5 μM chelerythrine and 8 Gy
Description: Cells, 2.5-3.5×10^5, were cultured in 24-well tissue culture plates for all experiments following standard procedures as previously described (Chmura et al., 1996a; 1996b). Cells were treated with varying concentrations of chelerythrine, incubated for 30 minutes at 37° C. and then irradiated. Radiation for all samples was delivered using a ^60 Co-irradiator (Gammacell 220, Atomic Energy of Canada) at a dose rate of 2.0 Gy/sec. After the indicated time points, cells were harvested, washed once in PBS, and resuspended in PBS containing […] propidium iodide. […] Cells undergoing apoptosis also shrink in size. Cells were analyzed via flow cytometry (FACS) following standard procedures as described in (Chmura et al., 1996a; 1996b) on a FACScan (Becton-Dickson) using Lysis II software.

WEHI-231 cells = experiment: Ceramide production by DAG kinase assay; assay type: cell-based, murine; settings: Mus musculus, WEHI231, 0.5 h; 10 μM chelerythrine, approximately 30 minutes; read-out: ceramide generation increase
Description: FIG. 7A. Inhibition of PKC causes an increase in ceramide production through the activation of a neutral sphingomyelinase and decreases in sphingomyelin levels. Ceramide production was quantitated using the DAG kinase assay for WEHI-231 JM cells and total lipid extraction was used to assay sphingomyelin mass. Following addition of 10 μM chelerythrine, cells were lysed at the appropriate time points as described herein. Each data point represents the average percentage change in ceramide or sphingomyelin generation from baseline derived from at least 8 independent studies for all time points with the exception of those marked with * (n=4). Standard deviations depicted by error bars.
FIG. 7B. […] Ceramide production and sphingomyelin mass was quantitated identical to that for chelerythrine. Cells were lysed 2 hours following the addition of 250 nM calphostin C. […]
Quantitation of ceramide by diacylglycerol kinase was similar to that described by Dressler and Kolesnick (1990). […] Data was calculated as pmoles of ceramide/10^6 cells by scintillation counting. […]
In order to test whether PKC inhibition alters ceramide production, the DAG kinase assay was used to quantify intracellular ceramide following chelerythrine and calphostin C treatment (Dressler and Kolesnick, 1990; Preiss et al., 1986). […]

## COc1ccc2c(c[n+](C)c3c4cc5c(cc4ccc23)OCO5)c1OC [chelerythrine, 1,2-dimethoxy-12-methyl[1,3]benzodioxolo[5,6-c]phenanthridinium]
SQ-20B xenografts
  inflammatory response and necrosis in epidermis and muscle: did not increase this response
SQ-20B cells
  decrease in cell survival: 85%
WEHI-231 cells
  activation at 10 µM: 100%
